The text below walks through data of publication PMC7004151, “Synthesis and Structure‐Activity Relationships of N‐(4‐Benzamidino)‐Oxazolidinones: Potent and Selective Inhibitors of Kallikrein‐Related Peptidase 6” (Chemmedchem, 2019).

Structures are written as SMILES.

The nature of one data set: Plasma stability assay. In kind it is in vitro ADME, mouse. On the procedure: Plasma stability assay: Test compound (10 μM) was incubated in pre‐warmed plasma at 37 °C (that is buffered to pH 7.4 in ratio of 70 : 30 plasma to buffer). Immediately, at time zero, then at 30, 60, 120, and 180 min, a 50 μL aliquot of the incubation mixture was removed and mixed with 200 μL acetonitrile containing Donepezil as the internal standard (50 ng/mL) to stop the reaction. The samples were centrifuged to sediment the precipitated protein and the plates then sealed prior to UPLC‐MS/MS analysis using a Quattro Premier XE (Waters Corporation, USA). XLfit (IDBS, UK) was used to calculate the exponential decay and consequently the rate constant (k) from the ratio of peak area of test compound to internal standard at each time point. The half‐life was calculated for each test compound from the rate by using the following calculation: t1/2=0.693/k

A short description of data set [1]: Hepatocytes intrinsic clearance. It is filed as in vitro ADME. On the procedure:
Hepatocytes Intrinsic clearance (CLint) assay: Cryopreserved vials of mouse cryopreserved hepatocytes, supplied by Life Technologies, were thawed according to manufacturer's instructions and cells re‐suspended in Williams Medium E (WME) containing cell maintenance supplement pack (CM4000, Life Technologies). Hepatocytes were incubated in suspension (0.5x10^6 cells/mL) in 48 well non‐collagen coated cell culture plates for 10 min at 37 °C, 95 % O2 5 % CO2. Upon addition of an equal volume of supplemented WME containing 1 μM test compound, an aliquot of incubation solution was removed to acetonitrile containing internal standard (final concentration 0.5 μM test compound and a cell density of 0.25×10^6 cells/mL). Similarly, aliquots were removed at 3, 6, 9, 15, 30, 45, 60, 90 and 120 min. 100 μL of 80 : 20 H2O/MeCN was added to all samples and the analysis plate was centrifuged for 10 min at room temperature prior to injection and analysis of samples by UPLC‐MS/MS. The response (area ratio of test compound to internal standard) was plotted against time using an exponential decay model and rate of disappearance calculated. Hepatocyte CLint (mL/min/10^6 cells) was scaled to in vivo CLint (mL/min/g liver) using the hepatocellularity scaling factor of 120×10^6 cells/g of liver.

In the next data set the target is KLK6 (Homo sapiens, UniProt Q92876). The experiment in a line: KLK6 enzymatic inhibition assay (fluorogenic Boc-Phe-Ser-Arg-AMC substrate). Also on record: made in house. It is filed as biochemical. On the procedure: Using our previously published KLK6 assay format,21 we performed a HTS with the European Lead Factory (ELF),22 and tested ∼350,000 substances at 10 μM for their ability to reduce KLK6‐catalyzed hydrolysis of the fluorogenic Boc‐Phe‐Ser‐Arg‐AMC peptide.
High Throughput Screen: The European Lead Factory library of ∼350,000 compounds was used for high throughput screening at the Pivot Park Screening Center facilities in Oss, The Netherlands. […] For SPR, Biacore T200 was used and KLK6 was immobilized onto a CM5 chip. […] An 8 point 1 in 3 dilution series of 1 (50 μM to 0.02 μM) was also applied at the beginning and end of each screening day.
Enzyme inhibition assays: All chemicals were purchased from Sigma Aldrich (Gillingham, UK) unless otherwise stated.

Another data set addresses T1, Human Factor Xa (Homo sapiens, UniProt P00742).
T1 construct: Human Factor Xa was purchased from Enzo Life Sciences; purchased Enzo Life Sciences
The experiment in a line: Factor Xa enzyme inhibition assay. It is filed as biochemical. The following applies: read-out: Factor Xa pIC50 (converted). The method, then:
Human thrombin was purchased from Biopur. Human trypsin was purchased from Polymun Scientific. Human Factor Xa was purchased from Enzo Life Sciences. Thrombin (20 nM), trypsin (0.000015 %) or Factor Xa (10 nM) were assayed in a similar manner to the KLKs but were incubated with compound for 20 min at room temperature in assay buffer (50 mM Tris HCl, pH 7.6, 100 mM NaCl, 1 mg/ml CHAPS, 0.05 % bovine serum albumin (BSA), 1 mM dithiothreitol (DTT)) before the addition of 5 μM, 2.5 μM or 1.5 μM Rhodamine 110 substrate (Cambridge bioscience ltd) respectively. Fluorescence intensity was then read at ex/em 485/535 following incubation for 1 h at room temperature (thrombin and factor Xa) or 20 min (trypsin).

Data set [2] is described as follows: Microsomal intrinsic clearance, mouse liver microsomes. In kind it is in vitro ADME. On the procedure: Immediately, at time zero, then at 3, 6, 9, 15 and 30 min an aliquot (50 μL) of the incubation mixture was removed and mixed with acetonitrile (100 μL) to stop the reaction. Internal standard was added to all samples, the samples centrifuged to sediment precipitated protein and the plates then sealed prior to UPLC‐MS/MS analysis using a Quattro Premier XE (Waters Corporation, USA). XLfit (IDBS, UK) was used to calculate the exponential decay and consequently the rate constant (k) from the ratio of peak area of test compound to internal standard at each timepoint. The rate of intrinsic clearance (CLint) of each test compound was then calculated using the following calculation: CLint (mL/min/g liver)=k×V×Microsomal protein yield. Where V (mL/mg protein) is the incubation volume/mg protein added and microsomal protein yield is taken as 52.5 mg protein/g liver. Verapamil (0.5 μM) was used as a positive control to confirm acceptable assay performance.

T1 sequence (P00742 235-488 limits assumed): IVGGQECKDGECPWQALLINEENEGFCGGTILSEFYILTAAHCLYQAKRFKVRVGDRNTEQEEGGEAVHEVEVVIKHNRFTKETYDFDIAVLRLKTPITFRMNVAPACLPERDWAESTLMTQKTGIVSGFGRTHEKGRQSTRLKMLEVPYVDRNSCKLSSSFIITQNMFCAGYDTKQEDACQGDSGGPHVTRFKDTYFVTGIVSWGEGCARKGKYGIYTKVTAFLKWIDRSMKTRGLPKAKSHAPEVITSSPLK
T1 sequence (P00742 41-179 partner limits assumed): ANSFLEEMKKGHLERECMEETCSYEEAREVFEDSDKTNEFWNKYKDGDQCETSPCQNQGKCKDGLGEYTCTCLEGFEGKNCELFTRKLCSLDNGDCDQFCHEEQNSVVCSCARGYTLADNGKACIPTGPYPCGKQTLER

As to `CC[C@H](NC(=O)[C@H]1CN(c2ccc(C(=N)N)cc2)C(=O)O1)c1cccc2ccccc12` [Compound 32, (5R)‐3‐(4‐carbamimidoylphenyl)‐N‐((S)‐1‐(naphthalen‐1‐yl)propyl)‐2‐oxooxazolidine‐5‐carboxamide], the “stability in mouse plasma” value in the data set “Plasma stability assay” (over 3 h) is on record as “no instability”. In addition, the half-life at 10 μM in the data set “Plasma stability assay” (pH 7.4, mouse plasma, 37 °C, read-out: Mouse Plasma Stability (t1/2)) is greater than 3 h. Further, in data set [1], the “Mouse Hep Cl” value was found to be 2.3 mL/min/g. Also, on KLK6 (relative to 5), the “gain in potency for KLK6” value was roughly 100 fold. In addition, the IC50 on KLK6 (synthesized inhibitors (Table 3), 8.6 = assay limit, read-out: KLK6 pIC50 (converted)) was 2.51 nM; at Human Factor Xa it was greater than 20000 nM. Also, in data set [2], the “Mouse CLint” value worked out at 2.4 mL/min/g.
